Activity calls are given as the source filed them.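 The calls were made as follows: active = compound flagged as a likely artifact in this counterscreen, with IC50 of 10 µM or lower; inactive = IC50 above 10 µM.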

The experiment has as its system HEK293 Gal4-VP16 luciferase reporter counterscreen, luminescence. The experiment can be described thus: Gal4-VP16 luciferase reporter inhibitors, dose response, counter-screen for COUP-TFII inhibitor project, cell-based, luminescence, HEK293 (AID 720547).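 Also: potency for lowering the luciferase signal driven by Gal4-VP16.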
`CCOC(=O)c1cnc(-n2nc(C)cc2C)nc1NC1CCCC1`: the IC50 was 50.3 µM (inactive). With `CC(C)CNc1ncnc2c1ncn2[C@H]1CN(Cc2ccc(-c3ccccc3)cc2)C[C@@H](CO)O1` the figure was 61.9 µM (inactive); with `NC(=O)[C@H]1CC2(CC(c3cccc(NC(=O)COc4ccc(Cl)cc4)c3)=NO2)CN1C(=O)Cc1ccc([N+](=O)[O-])cc1` (stereo partly drawn), > 85.5 µM (inactive). Next, `Cc1c(C(=O)NCc2ccc(C(C)C)cc2)sc(=O)n1Cc1ccc(S(=O)(=O)N(C)C)cc1`: > 85.4 µM (inactive). `Cc1cc(C(=O)NC2CCCc3c2cnn3-c2ccc(C(C)(C)C)cc2)nn1C` (stereo not drawn): the IC50 is > 85.4 µM (inactive).

Turning to `Cc1nn(C)c(C)c1CN(Cc1nc(CCC(C)C)no1)C(C)C`, the IC50 was > 85.4 µM (inactive).

Take `Fc1ccc(-n2nnnc2-c2cnc(-c3cccs3)nc2C(F)(F)F)cc1`: the IC50 is 33.4 µM (inactive). Turning to `COc1ccccc1-c1cc2nc(-c3ccccc3)cc(N3CCN(C(=O)c4ccco4)CC3)n2n1`, the IC50 is 10.3 µM (inactive). Turning to `O=C(CSc1nnnn1C1CC2CCC1C2)Nc1ccnc2ccccc12` (stereo not drawn), the IC50 was > 85.4 µM (inactive). Take `OC[C@@H]1CN(Cc2ccc(-c3ccccc3)cc2)C[C@H](n2cnc3c(NC4CCC4)ncnc32)O1`: the IC50 is 64.1 µM (inactive). Next, `c1ccc2cc3[nH]c(CNc4nc(N5CCOCC5)nc5c4ncn5-c4ccsc4)nc3cc2c1`: > 85.3 µM (inactive); `Cn1nc(C(C)(C)C)cc1C(=O)NCc1cc(F)cc2c1OCOC2`: > 85.4 µM (inactive); `S=C(NCCc1ccccc1)Nc1cccc2cnccc12`: > 85.4 µM (inactive). `Cc1sc2ncnc(NCC3COc4ccccc4O3)c2c1C` (stereo not drawn): the IC50 is > 85.4 µM (inactive). As to `Cc1cc(C)c(O)c(C(=O)CC2CC(=O)NC(=O)C2)c1`, the IC50 is > 85.4 µM (inactive). As to `CCC(O)C1CCN(C(=O)c2cc(COc3ccc4ncccc4c3)on2)CC1` (stereo not drawn), the IC50 is > 85.4 µM (inactive). Regarding `Cc1cc(/C=C2\Sc3ccccc3N2C)cc(C)[n+]1CC1CCCO1` (stereo not drawn), the IC50 is > 85.4 µM (inactive). Consider `Cn1nc(CC(=O)Nc2ccc(N3CCN(C(=O)OC(C)(C)C)CC3)cc2)c2ccccc2c1=O`, for which the IC50 is 81.2 µM (inactive).

For the molecule `OC[C@@H]1CN(Cc2ccc(-c3ccccc3)cc2)C[C@H](n2cnc3c(NCc4ccc(F)cc4)ncnc32)O1`, the IC50 was 83.4 µM (inactive). With `Cc1ccnc(Nc2nc(-c3sc(C)nc3C)cs2)c1` the figure was > 85.3 µM (inactive).

Consider `Cc1ccc(-n2nc3c(=O)n(C(C)C(=O)NCCC4=CCCCC4)nc(C)c3c2C)cc1` (stereo not drawn), for which the IC50 was > 28.5 µM (inactive). On to `Cc1oc(-c2ccc(Cl)cc2)nc1CS(=O)CC(=O)NCCCN1CCN(Cc2ccccc2)CC1` (stereo not drawn), for which the IC50 is > 28.5 µM (inactive). Turning to `Cc1cc(-n2c(C)cc(C(=O)CSc3ncnc4ccccc34)c2C)no1`, the IC50 is > 85.5 µM (inactive). `c1ccc2c(c1)CCN(c1ncnc3c1[nH]c1ccccc13)C2`: the IC50 is 53.8 µM (inactive). Take `Cc1sc(NC(=O)CN2CCOCC2)nc1-c1ccc2c(c1)CCN2S(=O)(=O)c1ccccc1`: the IC50 is > 85.4 µM (inactive).

Regarding `Cc1ccc(-c2cc3cccc[n+]3cc2-c2ccc(C)cc2)cc1`, the IC50 was > 28.5 µM (inactive).

With `CCN1/C(=C\c2ccc3ccccc3[n+]2CC)Sc2cc(C)ccc21`, the IC50 was 53.9 µM (inactive).

As to `CCOCCCNC(=S)N1CCN(c2nc(-c3ccc(F)cc3)cs2)CC1`, the IC50 was 45.1 µM (inactive). Take `Cc1ccc(OCCN2CCN(c3ncnc4sc(C)c(C)c34)CC2)cc1`: the IC50 is > 85.4 µM (inactive). For the molecule `CC(C)CC(NC(=O)CCCNC(=O)CCC(=O)OC1O[C@H]2OC3(C)CC[C@H]4[C@H](C)CCC(C1C)C24OO3)C(=O)O` (stereo partly drawn), the IC50 is > 85.4 µM (inactive). Regarding `O=C(NC(Nc1nc2ccc([N+](=O)[O-])cc2s1)(C(F)(F)F)C(F)(F)F)c1cccnc1`, the IC50 was > 85.4 µM (inactive). For the molecule `Cn1c2ccccc2c(=O)c2cc(C#CC3(O)CCCCC3)ccc21`, the IC50 is > 85.4 µM (inactive). In the case of `C[n+]1c2n(c3ccccc31)N=C(c1ccc(-c3ccccc3)cc1)CS2`, the IC50 is > 28.5 µM (inactive). Next, `Oc1ccc(-[n+]2c(-c3ccccc3)cc(-c3ccccc3)cc2-c2ccccc2)cc1`: 12.6 µM (inactive); `CC(=O)c1c(C)[nH]c(C(=O)OCCCCN2C(=O)c3ccccc3C2=O)c1C`: 63.7 µM (inactive); `COc1ccc(CNC(=O)c2cccc3c(-c4cccnc4)coc23)cc1OC`: 43.4 µM (inactive). With `O=C(c1cc(COc2cccc3cnccc23)on1)N1CCCC(CCCO)C1` (stereo not drawn), the IC50 was > 85.4 µM (inactive).

Turning to `C[C@H]1C[C@@H](C)C(=O)[C@@H]([C@H](O)CC2CC(=O)NC(=O)C2)C1`, the IC50 is > 85.4 µM (inactive). On to `Cc1nn(C)c(C(=O)NCc2ccc(Cl)cc2)c1Cl`, for which the IC50 was > 85.4 µM (inactive).

Regarding `CCN(CC)S(=O)(=O)c1cccc(NC(=O)COC(=O)c2[nH]c(C)c(C(C)=O)c2C)c1`, the IC50 was > 28.5 µM (inactive).

Consider `CC(=O)N[C@@H](C)c1nc2ccccc2n1CCCN1CCN(c2nc(-c3ccc(C)cc3)cs2)CC1`, for which the IC50 is 57 µM (inactive).

For the molecule `CC1Cc2cc(-c3csc(NC(=O)Cc4cccs4)n3)ccc2N1S(C)(=O)=O` (stereo not drawn), the IC50 is 30.5 µM (inactive).

On to `COc1ccc(CNc2ncnc3ccccc23)cc1`, for which the IC50 was > 85.4 µM (inactive). Next, `Cc1ccc(-n2nc3c(=O)n(C(C)C(=O)NCCCc4ccccc4)nc(C)c3c2C)cc1` (stereo not drawn): > 85.4 µM (inactive).

For the molecule `N=c1ccn(CC(=O)c2ccc(-c3ccccc3)cc2)cc1`, the IC50 is > 85.4 µM (inactive). As for `C=CCC1(CC=C)CCCN1C(=O)c1cc(COc2ccc(C)nc2)on1`, the IC50 is > 85.4 µM (inactive). Turning to `COc1ccc(-c2ccc3oc(-c4ccc(OC)cc4)c(C#CCO)c3c2)cc1`, the IC50 was > 85.4 µM (inactive). Consider `Cc1nc2ccccc2n1Cc1ccc(Br)cc1`, for which the IC50 was > 85.3 µM (inactive).

Regarding `CCOC(=O)N1CCC(Nc2ncnc3c2cnn3-c2ccc(C)cc2C)CC1`, the IC50 is > 85.4 µM (inactive).

Take `Clc1ccc(OCCN2CCN(c3ncnc4sccc34)CC2)cc1`: the IC50 is > 85.5 µM (inactive).

Consider `COc1ccc(/C=N/OCC(=O)NC(c2ccccc2)c2ccccc2)cc1OC`, for which the IC50 was > 85.4 µM (inactive). With `C=CC[n+]1c(-c2ccc(Cl)cc2Cl)csc1Nc1c(C)n(C)n(-c2ccccc2)c1=O`, the IC50 was > 85.4 µM (inactive). With `COc1ccc(CCNC(=O)C(C)n2nc(C)c3c(C)n(-c4ccc(C)cc4)nc3c2=O)c(OC)c1` (stereo not drawn), the IC50 was > 28.5 µM (inactive).

Values taken from PubChem BioAssay AID720547 (The Scripps Research Institute Molecular Screening Center, 2013).
